By inhibition is commonly meant the change of the read-out against control, counted positive when it falls.

For test [1], the target named is T1, 5-HT1B receptor (Homo sapiens, UniProt P28222).
T1 construct: CEREP
In words: CEREP in vitro binding assay (pharmacological profiling).

Test [2] addresses T2, CB2 receptors (Homo sapiens, UniProt P34972).
T2 construct: CEREP
Described as above. The following applies: at micromolar concentrations; range given jointly for CB2, Kv, 5-HT3. The method, then: (§1) Table 1 represents pharmacological profiling of convolamine which was tested at […] and 1 µM in in vitro binding assays designed with appropriate reference compounds in duplicates at CEREP facility.

The target in test [3] is T3, 5-HT3 receptor (Homo sapiens, UniProt P46098).
T3 construct: CEREP
T3 sequence (P46098 24-478): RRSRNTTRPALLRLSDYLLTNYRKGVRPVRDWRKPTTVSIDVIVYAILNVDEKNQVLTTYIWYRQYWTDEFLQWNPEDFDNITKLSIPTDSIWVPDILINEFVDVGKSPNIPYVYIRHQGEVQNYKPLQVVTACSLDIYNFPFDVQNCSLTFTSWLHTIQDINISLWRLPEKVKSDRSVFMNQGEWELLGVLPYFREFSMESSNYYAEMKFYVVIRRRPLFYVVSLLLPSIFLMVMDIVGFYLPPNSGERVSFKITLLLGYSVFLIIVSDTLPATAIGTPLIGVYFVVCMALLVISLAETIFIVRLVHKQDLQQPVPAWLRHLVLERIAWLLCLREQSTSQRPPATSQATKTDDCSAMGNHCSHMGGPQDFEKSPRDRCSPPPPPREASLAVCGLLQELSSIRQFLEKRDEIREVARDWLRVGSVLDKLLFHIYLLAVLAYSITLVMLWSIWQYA
The test is described as above. As to the method:
as §1

The test system of test [4] is wfs1ab^KO zebrafish larvae. In words: Visual motor response in zebrafish larvae (hyperlocomotor response). In kind it is in vivo. The method, then: The visual motor response assay quantifies the locomotor activity of the zebrafish larvae to light intensity changes. The protocol was previously described (Crouzier et al., 2021a, 2021b, 2022). In brief, 5 dpf larvae were transfered in a 96-well plate (#7701-1651, Whatman) with 300 µl of fish water and placed in a Zebrabox® (ViewPoint, Lissieu, France). The locomotor behavior was monitored using an automated videotracking device equipped with an infra-red (IR) camera under IR light illumination (Zebralab®, Viewpoint). The light protocol was as follow: 30 min of acclimatization in the dark (0% light intensity), then 2 cycles of 10-min duration light ON and 10-min duration light OFF periods. The brightness changes were immediate (<< 1 s). The activity was measured in mm/s. For each larva, the mobility were calculated as mean (OFF-ON) values to account for inter- and intra-group variability in locomotor response.
A phenotypic test described by Crouzier et al. (2022) was performed. […] Compounds were added in the fish water of larvae at 4 dpf for 24 h, and screening parameters included: (1) the lack of toxicity (including grossly observable morphological alterations) after 24 h exposure; (2) the locomotor increase in wfs1ab^KO larvae, expressed as % of V-treated wfs1ab^KO response; (3) the eventual alteration of locomotion in wfs1ab^WT larvae, expressed as % of V-treated wfs1ab^WT response; and (4) the Protection index (PI) calculated as detailed in the Methods section.

Test [5] addresses T4, S2R (Homo sapiens, UniProt Q5BJF2).
T4 construct: 25 nM of [^3H]ditolyl-guanidine in membranes preparations from Jurkat human leukemic T cells; host or cells: Jurkat human leukemic T cells (membrane preparation)
The test can be described thus: In vitro binding to S2R ([3H]ditolyl-guanidine, Jurkat cell membranes, CEREP). The following applies: membranes from Jurkat human leukemic T cells, 25 nM radioligand; read-out: IC50 for [3H]DTG binding (S2R / SIG-2R affinity). As to the method: The assay was performed by CEREP (Celle l'Evescault, France) (study 100062023). SIG-1R binding was performed according to Ganapathy et al. (1999). Increasing drug concentrations (100 nM to 30 µM) were incubated with 15 nM of [^3H](+)-pentazocine in membranes preparations from Jurkat human leukemic T cells. Samples were incubated during 120 min at 37°C and nonspecific binding level was determined using 10 µM of haloperidol. S2R binding was performed according to Ganapathy et al. (1999). Increasing drug concentrations (100 nM to 30 µM) were incubated with 25 nM of [^3H]ditolyl-guanidine in membranes preparations from Jurkat human leukemic T cells. Samples were incubated during 60 min at room temperature and nonspecific binding level was determined using 10 µM of haloperidol. Assays were performed in duplicates and results were expressed as % of specific binding level.

Test [6] is described as follows: Summary of the in vivo tests (active dose range). The following applies: dizocilpine-induced amnesia and Aβ25-35 tests. The source says:
A characteristic of SIG-1R positive modulators, likely due to the chaperone nature of SIG-1R, is to behave in vivo as agonists (Vavers et al., 2019).

pIC50: −log10 of the molar value. Where “and” joins values, the source holds several entries; their conditions need not be identical. Identical values can stand only once.

T1 sequence (P28222 whole entry): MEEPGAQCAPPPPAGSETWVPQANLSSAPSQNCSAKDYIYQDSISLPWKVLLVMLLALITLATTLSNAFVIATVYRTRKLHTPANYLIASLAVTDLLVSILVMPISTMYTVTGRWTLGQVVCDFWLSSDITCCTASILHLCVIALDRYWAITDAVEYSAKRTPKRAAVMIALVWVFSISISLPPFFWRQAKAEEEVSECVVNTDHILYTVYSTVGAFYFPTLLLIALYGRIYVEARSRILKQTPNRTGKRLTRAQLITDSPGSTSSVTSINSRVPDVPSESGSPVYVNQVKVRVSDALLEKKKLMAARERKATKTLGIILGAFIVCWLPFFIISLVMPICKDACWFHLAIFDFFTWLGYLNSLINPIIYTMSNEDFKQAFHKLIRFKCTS
T4 sequence (Q5BJF2 whole entry): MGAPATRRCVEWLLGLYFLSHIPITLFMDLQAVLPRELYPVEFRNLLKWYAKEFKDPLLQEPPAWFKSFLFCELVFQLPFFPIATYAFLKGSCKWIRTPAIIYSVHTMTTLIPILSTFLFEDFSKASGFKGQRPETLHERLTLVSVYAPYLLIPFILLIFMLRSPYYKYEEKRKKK
T2 sequence (P34972 whole entry): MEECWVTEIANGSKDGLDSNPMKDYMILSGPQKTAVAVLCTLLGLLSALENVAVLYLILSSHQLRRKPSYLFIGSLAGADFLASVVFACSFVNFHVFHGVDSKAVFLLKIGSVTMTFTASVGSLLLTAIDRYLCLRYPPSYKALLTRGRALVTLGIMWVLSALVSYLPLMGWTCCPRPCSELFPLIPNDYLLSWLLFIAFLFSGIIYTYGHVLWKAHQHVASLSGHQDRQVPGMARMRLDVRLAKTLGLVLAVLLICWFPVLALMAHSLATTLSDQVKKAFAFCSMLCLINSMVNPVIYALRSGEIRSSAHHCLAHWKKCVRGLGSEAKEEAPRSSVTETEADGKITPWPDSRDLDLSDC

Take `COc1ccc(C(=O)OC2CC3CCC(C2)N3C)cc1OC` (centres unmarked) [Convolamine, (8-methyl-8-azabicyclo[3.2.1]octan-3-yl) 3,4-dimethoxybenzoate]: the “stimulation of specific binding” value in test [1] is on record as 30-40%. Also, the inhibition at 0.1 µM in test [1] (0.1 µM, duplicates, negative = stimulation of binding) was -33%; in test [3] (0.1 µM, duplicates), 16.2%. Further, the inhibition at 1 µM in test [1] (1 µM, duplicates, negative = stimulation of binding) was -38.6%; in test [3] (1 µM, duplicates) it was 61.7%. Also, the “inhibitions of the selective radiotracer” value in test [2] is 20-60%; in test [3] (at micromolar concentrations, range given jointly for CB2, Kv, 5-HT3), 20-60%. Further, the “inhibition of binding on the 5-HT3 receptor (in words)” value in test [3] (at 1 µM) is “partial inhibition”. Moreover, the “hyperlocomotor response of wfs1ab^KO zebrafish larvae (in words)” value in test [4] (0.3-3 µM concentration-range) was “dose-dependently abolished”. Also, in test [4] (5 dpf larvae, 24 h exposure, 3 µM), the “Protection index (PI)” value is recorded as 1.0. Also, the “hyperlocomotor response of wfs1ab^KO zebrafish (in words)” value in test [4] (at 3 µM in fish water) is reported as “completely prevented”. Also, the “effect of convolamine on hyperlocomotor response under co-treatment with NE-100 (in words)” value in test [4] (co-treatment with NE-100 at 3 µM) is recorded as “attenuated”. Moreover, the pIC50 in test [5] is 4.89 and ~4.89. In addition, the active dose in test [6] lay within 0.3 to 3 mg/kg.
